Usually pIC50 stands for −log10 of the IC50, conventionally taken in molar units.

pIC50: −log10 of the molar value. Where two headings read alike, the source gives them in different places.

Drawing on US10047081B2, “BACE1 inhibitors” (Hoffmann-La Roche Inc., priority 2015, dated 2018), this text covers IC50 and GSH human for three molecules.

One data set addresses T1, CYP2D6 (Homo sapiens, UniProt P10635).
T1 construct: 0.2 mg/ml pooled human liver microsomes; from tissue; host or cells: pooled human liver microsomes
Nature of the data set: CYP inhibition assay, human liver microsomes. The data set is classed as in vitro ADME. How it is done:
(§1) Inhibition of cytochromes P450 (CYPs) 2C9, 2D6 and 3A4 was assessed using human liver microsomes and CYP-selective substrate metabolism reactions. 50 μl incubations were made up containing (finally) 0.2 mg/ml pooled human liver microsomes, 5 μM substrate (diclofenac for CYP2C9 [4′hydroxylase], dextromethorphan for CYP2D6 [O-demethylase] or midazolam for CYP3A4 [1′hydroxylase]), 0.25 μL DMSO containing test inhibitor and NADPH regenerating system. Test inhibitor concentrations of 50, 16.7, 5.6, 1.9, 0.6 and 0.2 μM were assessed in singlicate. Incubations were prewarmed to 37° C. for 10 minutes before initiation by addition of NADPH regenerating system. Incubations were quenched after 5 minutes (20 minutes for dextromethorphan) by addition of 50 μl cold acetonitrile containing 20 ng/ml 4-OH-diclofenac-13C6, 20 ng/mL dextrorphan-D3 and 20 ng/mL 1-OH-midazolam-D4. Quenched incubates were stored at −20° C. for at least 1 hour before centrifugation (20,000× g, 20 minutes). Supernatants were removed and diluted 1:1 with water prior to analysis using a RapidFire sample injector system and API4000 mass spectrometer. Peak areas for substrate, metabolite and stable-labelled metabolite standard were determined using MS/MS. The peak area ratios between the metabolite generated by the enzymatic reaction and the internal standard were used in subsequent calculations. The percentage of (DMSO) control activity was calculated for each incubate and IC50 values estimated by non-linear regression. Sulfaphenazole, quinidine or ketoconazole were tested in each CYP2C9, CYP2D6 or CYP3A4 inhibition experiment, respectively, to ensure assay sensitivity and reproducibility. (Validated assays for human cytochrome P450 activities, R. L. Walsky and R. S. Obach, Drug Metabolism and Disposition 32: 647-660, 2004. and S. Fowler and H. Zhang, The AAPS Journal, Vol. 10, No. 2, 410-424, 2008)

A further data set concerns the target T2, CYP2C9 (Homo sapiens, UniProt P11712).
T2 construct: 0.2 mg/ml pooled human liver microsomes; from tissue; host or cells: pooled human liver microsomes
The data set can be described thus: CYP inhibition assay, human liver microsomes. The data set is classed as in vitro ADME. How it is done:
as §1
Background: Liver microsomes are vesicles of endoplasmic reticulum, rich in cytochrome P450 enzymes.

A short description of data set [1]: GSH human, in vitro adduct formation. The format is in vitro ADME. Further details: key: NF = in vitro no significant adduct formation relative to control. The settings on record: in vitro adduct formation relative to control.
The target of data set [2] is T3, recombinant human cathepsin E (Homo sapiens, UniProt P14091).
T3 construct: purchased R&D Systems
T3 sequence (P14091 54-396): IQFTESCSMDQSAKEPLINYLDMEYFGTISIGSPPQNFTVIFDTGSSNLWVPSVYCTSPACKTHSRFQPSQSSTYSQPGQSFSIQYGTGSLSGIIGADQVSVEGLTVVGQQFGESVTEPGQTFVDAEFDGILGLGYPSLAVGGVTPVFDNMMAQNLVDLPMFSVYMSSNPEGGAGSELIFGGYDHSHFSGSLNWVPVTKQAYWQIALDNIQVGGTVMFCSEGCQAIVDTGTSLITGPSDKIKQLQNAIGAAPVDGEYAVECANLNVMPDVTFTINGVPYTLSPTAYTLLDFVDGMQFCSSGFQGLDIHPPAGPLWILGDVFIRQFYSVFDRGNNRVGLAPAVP
Nature of the data set: Cathepsin E fluorescent substrate kinetic assay. The following applies: pH 4.5, substrate MR121-CKLVFFAEDW
The data set is classed as biochemical. An excerpt: (§2) Cathepsin D and Cathepsin E Fluorescent Substrate Kinetic Assays
(§3) The MR121 fluorescence assays described below are based on the fact that MR121 forms a non-fluorescent ground state complex with tryptophan. In solution this formation occurs at millimolar concentrations of tryptophan. The mechanism can be used to design a generic biochemical assay for proteases. A substrate peptide is labeled at the N-terminus with tryptophan and at the C-terminus with the fluorophore MR121 (for cathepsin D the 10 amino acid peptide WTSVLMAAPC-MR121 was used; for cathepsin E, MR121-CKLVFFAEDW was used). In absence of protease activity, the substrates remain intact and the MR121 fluorescence is reduced by the high local Trp-concentration. If the substrates are cleaved by the enzymes the MR121 fluorescence is recovered.
(§4) The fluorescent substrate cathepsin D and cathepsin E kinetic assays were performed at room temperature in 384-well microtiter plates (black with clear flat bottom, non-binding surface plates from Corning) in a final volume of 51 μl. The test compounds were serially diluted in DMSO (15 concentrations, ⅓ dilution steps) and 1 μl of diluted compounds were mixed for 10 min with 40 μl of cathepsin D (from human liver, Calbiochem) diluted in assay buffer (100 mM sodium acetate, 0.05% BSA, pH 5.5; final concentration:200 nM) or with 40 μl of recombinant human cathepsin E (R&D Systems) diluted in assay buffer (100 mM sodium acetate, 0.05% BSA, pH 4.5; final concentration:0.01 nM). After addition of 10 μl of the cathepsin D substrate WTSVLMAAPC-MR121 diluted in cathepsin D assay buffer (final concentration:300 nM) or 10 μl of the cathepsin E substrate MR121-CKLVFFAEDW diluted in cathepsin E assay buffer (final concentration:300 nM), the plates were strongly shaken for 2 minutes. The enzymatic reaction was followed in a plate: vision reader (Perkin Elmer) (excitation wavelength:630 nm; emission:695 nm) for at least 30 minutes in a kinetic measurement detecting an increase of MR121 fluorescence during the reaction time. The slope in the linear range of the kinetic was calculated and the IC50 of the test compounds were determined using a four parameter equation for curve fitting.

For the next data set, the target named is T4, BACE1 (Homo sapiens, UniProt P56817).
T4 construct: endogenous in cells; host or cells: HEK293 APP cells
T4 sequence (P56817 46-501): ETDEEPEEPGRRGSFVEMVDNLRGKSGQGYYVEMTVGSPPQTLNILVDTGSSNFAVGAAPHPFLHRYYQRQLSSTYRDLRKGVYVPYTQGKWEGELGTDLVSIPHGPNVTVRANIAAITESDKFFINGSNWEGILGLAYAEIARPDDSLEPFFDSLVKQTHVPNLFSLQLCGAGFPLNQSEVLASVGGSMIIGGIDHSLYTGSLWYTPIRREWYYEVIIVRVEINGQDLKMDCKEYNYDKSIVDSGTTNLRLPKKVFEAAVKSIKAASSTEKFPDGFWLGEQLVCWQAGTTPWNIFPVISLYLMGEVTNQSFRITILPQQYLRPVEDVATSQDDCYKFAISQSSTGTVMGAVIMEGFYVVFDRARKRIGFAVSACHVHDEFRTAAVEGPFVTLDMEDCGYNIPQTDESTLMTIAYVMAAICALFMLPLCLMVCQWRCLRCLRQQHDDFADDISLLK
Nature of the data set: Cellular Aβ-lowering assay (Abeta 40 AlphaLISA, HEK293 APP cells). The format is cell-based. The following applies: 18-20 hrs incubation, Aβ 40 in culture supernatant, read-out: BACE1 cell act. Aβ40 IC50. The protocol: Cellular Aβ-Lowering Assay:
The Abeta 40 AlphaLISA Assay can be used. The HEK293 APP cells were seeded in 96 well Microtiter plates in cell culture medium (Iscove's, plus 10% (v/v) fetal bovine serum, penicillin/streptomycin) to about 80% confluency and the compounds were added at a 3× concentration in ⅓ volume of culture medium (final DMSO concentration was kept at 1% v/v). After 18-20 hrs incubation at 37° C. and 5% CO2 in a humidified incubator, the culture supernatants were harvested for the determination of Aβ 40 concentrations using Perkin-Elmer Human Amyloid beta 1-40 (high specificity) Kit (Cat#AL275C).
In a Perkin-Elmer White Optiplate-384 (Cat#6007290), 2 ul culture supernatants were combined with 2 μl of a 10× AlphaLISA Anti-hAβAcceptor beads + Biotinylated Antibody Anti-Aβ 1-40 Mix (50 μg/mL/5 nM). After 1 hour room temperature incubation, 16 μl of a 1.25× preparation of Streptavidin (SA) Donor beads (25 μg/mL) were added and incubated for 30 minutes in the Dark. Light Emission at 615 nm was then recorded using EnVision-Alpha Reader. Levels of Aβ 40 in the culture supernatants were calculated as percentage of maximum signal (cells treated with 1% DMSO without inhibitor). The IC50 values were calculated using the Excel XLfit software.
For orientation: In Alpha technology, singlet oxygen from a donor bead excites a nearby acceptor bead.

Data set [3] addresses T5, cathepsin D (from human liver) (Homo sapiens, UniProt P07339).
T5 construct: cathepsin D (from human liver, Calbiochem) diluted in assay buffer; purchased Calbiochem; host or cells: human liver
The data set can be described thus: Cathepsin D fluorescent substrate kinetic assay. The data set is classed as biochemical. The settings on record: pH 5.5, substrate WTSVLMAAPC-MR121.
Excerpt: as §2, §3, §4

The next data set has as its target T6, CYP3A4 (Homo sapiens, UniProt P08684).
T6 construct: 0.2 mg/ml pooled human liver microsomes; from tissue; host or cells: pooled human liver microsomes
Nature of the data set: CYP inhibition assay, human liver microsomes. The data set is classed as in vitro ADME. How it is done: as §1

The mark [4] stands for this setting: human liver microsomes, substrate dextromethorphan, read-out: CYP IC50 2D6.
Where [5] appears, read: human liver microsomes, substrate diclofenac, read-out: CYP IC50 2C9.

T2 sequence (P11712 whole entry): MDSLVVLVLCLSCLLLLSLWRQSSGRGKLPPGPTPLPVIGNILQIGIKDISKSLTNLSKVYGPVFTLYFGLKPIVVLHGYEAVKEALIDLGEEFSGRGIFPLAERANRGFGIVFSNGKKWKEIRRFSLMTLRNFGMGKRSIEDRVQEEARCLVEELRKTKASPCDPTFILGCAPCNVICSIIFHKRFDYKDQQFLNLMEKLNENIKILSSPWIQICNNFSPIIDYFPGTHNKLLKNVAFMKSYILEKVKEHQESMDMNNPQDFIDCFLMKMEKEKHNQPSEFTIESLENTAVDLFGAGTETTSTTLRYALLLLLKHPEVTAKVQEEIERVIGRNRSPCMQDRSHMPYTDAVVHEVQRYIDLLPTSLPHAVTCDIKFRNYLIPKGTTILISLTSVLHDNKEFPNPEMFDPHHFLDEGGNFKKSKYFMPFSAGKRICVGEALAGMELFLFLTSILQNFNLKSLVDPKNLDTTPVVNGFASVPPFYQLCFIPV
T5 sequence (P07339 65-162 limits assumed): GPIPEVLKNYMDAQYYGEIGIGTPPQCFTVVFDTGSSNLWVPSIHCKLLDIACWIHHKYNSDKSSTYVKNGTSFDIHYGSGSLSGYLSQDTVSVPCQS
T5 sequence (P07339 169-412 limits assumed): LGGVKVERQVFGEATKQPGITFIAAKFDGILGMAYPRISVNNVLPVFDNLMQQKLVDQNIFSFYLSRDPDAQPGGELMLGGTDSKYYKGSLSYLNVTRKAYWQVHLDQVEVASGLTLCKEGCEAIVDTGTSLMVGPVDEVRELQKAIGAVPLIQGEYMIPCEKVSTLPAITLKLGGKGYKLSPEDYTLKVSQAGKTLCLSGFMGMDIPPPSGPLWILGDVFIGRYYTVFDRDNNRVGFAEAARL
T1 sequence (P10635 whole entry): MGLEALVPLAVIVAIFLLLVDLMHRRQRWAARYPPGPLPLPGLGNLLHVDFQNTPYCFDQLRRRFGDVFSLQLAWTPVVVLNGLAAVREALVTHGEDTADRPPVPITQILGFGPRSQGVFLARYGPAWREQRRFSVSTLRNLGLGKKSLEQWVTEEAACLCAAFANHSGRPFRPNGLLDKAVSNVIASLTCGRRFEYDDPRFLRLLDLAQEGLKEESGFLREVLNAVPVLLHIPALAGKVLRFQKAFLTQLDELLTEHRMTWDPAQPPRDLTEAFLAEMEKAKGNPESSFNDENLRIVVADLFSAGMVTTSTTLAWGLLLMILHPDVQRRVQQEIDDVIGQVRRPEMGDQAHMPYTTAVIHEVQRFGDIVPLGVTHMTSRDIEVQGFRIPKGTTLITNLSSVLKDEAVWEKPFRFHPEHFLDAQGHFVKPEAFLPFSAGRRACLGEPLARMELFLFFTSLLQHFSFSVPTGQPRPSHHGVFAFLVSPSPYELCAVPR
T6 sequence (P08684 whole entry): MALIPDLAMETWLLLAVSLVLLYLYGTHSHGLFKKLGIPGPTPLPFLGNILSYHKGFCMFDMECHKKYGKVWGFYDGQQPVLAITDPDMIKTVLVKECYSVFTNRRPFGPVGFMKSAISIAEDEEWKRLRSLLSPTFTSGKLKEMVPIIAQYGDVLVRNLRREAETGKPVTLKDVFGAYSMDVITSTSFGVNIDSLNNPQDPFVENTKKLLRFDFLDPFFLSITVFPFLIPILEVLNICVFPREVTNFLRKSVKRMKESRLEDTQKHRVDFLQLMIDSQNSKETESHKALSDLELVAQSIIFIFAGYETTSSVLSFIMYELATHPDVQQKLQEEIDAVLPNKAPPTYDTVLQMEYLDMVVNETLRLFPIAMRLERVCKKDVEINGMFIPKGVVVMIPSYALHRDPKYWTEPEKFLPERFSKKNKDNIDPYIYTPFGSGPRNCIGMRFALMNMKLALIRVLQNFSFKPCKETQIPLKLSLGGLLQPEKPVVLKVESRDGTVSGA

With `CN=[S@]1(=O)C[C@@](CF)(c2cc(-c3cc(-c4ncc(Cl)cn4)no3)ccc2F)N=C(N)C1(C)C` [Example 1, (1S,3S)-5-amino-3-(5-(3-(5-chloropyrimidin-2-yl)isoxazol-5-yl)-2-fluorophenyl)-3-(fluoromethyl)-6,6-dimethyl-1-(methylimino)-3,6-dihydro-2H-1,4-thiazine 1-oxide 2,2,2-trifluoroacetate], the pIC50 on CYP2D6 (setting [4]) is less than 5.00; on CYP2C9 (setting [5]), less than 5.00; in data set [2], 3.86; on BACE1, 7.02; in data set [3], 4.12. Besides, in data set [1], the GSH human entry is reported as “NF”.
Consider `CN=[S@@]1(=O)C[C@@](C)(c2cc(-c3cc(-c4ncc(Cl)cn4)no3)ccc2F)N=C(N)C12CCCC2` [Example 28, (6R,8R)-10-amino-8-(5-(3-(5-chloropyrimidin-2-yl)isoxazol-5-yl)-2-fluorophenyl)-8-methyl-6-(methylimino)-6-thia-9-azaspiro[4.5]dec-9-ene 6-oxide 2,2,2-trifluoroacetate], for which the negative-log IC50 (pIC50) on CYP2D6 is less than 5.00; at CYP3A4, less than 5.00; at CYP2C9, less than 5.00; in data set [2], 5.15; at BACE1, 8.15; in data set [3], 4.80.
As for `COc1cnc(-c2cc(-c3ccc(F)c([C@]4(C)C[S@@](=N)(=O)C(C)(C)C(N)=N4)c3)on2)cn1` [Example 41, (1R,3R)-5-amino-3-(2-fluoro-5-(3-(5-methoxypyrazin-2-yl)isoxazol-5-yl)phenyl)-1-imino-3,6,6-trimethyl-3,6-dihydro-2H-1,4-thiazine 1-oxide], the negative logarithm of the IC50 (pIC50) was less than 5.00 on CYP2D6 (setting [4]); less than 5.00 on CYP3A4 (human liver microsomes, substrate midazolam, read-out: CYP IC50 3A4); less than 5.00 on CYP2C9 (setting [5]); 4.25 in data set [2]; 8.10 at BACE1; 4.35 in data set [3].
